This passage reports IC50 results from US20220177456A1, “COMPOUNDS, COMPOSITIONS AND METHODS” (Denali Therapeutics Inc., priority 2019, published 2022).

pIC50: −log10 of the molar value.

The term pIC50 denotes the IC50 on a negative log10 scale, so that one unit is a factor of ten. A high value points to a low IC50.

This assay deals with ISR pathway (ATF4 translation), H4 ATF4-NLuc (clone 17) cell line. As to the kind of experiment: ATF4 Nano Luciferase reporter integrated stress response (ISR) assay in H4 ATF4-NLuc cells. The format is cell-based. As to conditions: human H4 neuroglioma ATF4-NLuc cells; compound 30 minutes, then 50 μm sodium arsenite for 6 hours; luminescence readout. An excerpt:
Cellular stress leads to activation of the integrated stress response pathway through one of four eukaryotic initiation factor 2α kinases and halts global translation, while allowing for the translation of select transcripts like ATF4 (activating transcription factor 4) that are important for the response to cellular stress. During normal conditions, small open reading frames (ORFs) in the 5′ UTR of ATF4 occupy the ribosome and prevent translation of the coding sequence of ATF4. During stress conditions however, the ribosome scans past these upstream ORFs and preferentially begins translation at the coding sequence of ATF4. In this way, the translation, and thus protein level of ATF4 is a readout of ISR pathway activation. Thus, a fusion of the uORFs and the beginning of the coding sequence of ATF to a common cellular reporter like nano-luciferase allows for a sensitive and high-throughput readout of ISR pathway activity.
Compounds as provided herein were tested in the following assay. The ATF4 Nano Luciferase reporter was constructed by fusing the human full length 5′ untranslated region (5′-UTR) and a small portion of the coding sequence of the ATF4 gene upstream of the Nano Luciferase (NLuc) coding sequence lacking it's start codon. Specifically, nucleotides +1 through +364 (relative to the transcriptional start site) of ATF4 transcript variant 2 (NCBI NM_182810.2) flanked 5′ by EcoRI and 3′ by BamHI restriction enzyme sites were synthesized and cloned into the EcoRI/BamHI cloning sites of pLVX-EF1a-IRES-Puro lentivirus vector (Clontech). Lentiviral particles were produced with Lenti-X single shots (VSV-G, Clontech) according to the manufacturer's instructions and used to transduce a human H4 neuroglioma cell line (ATCC HT1B-148). H4 cells were selected with 1.25 μg/mL Puromycin, and clonal cell lines generated by limiting dilution. We utilized this cell line to generate an integrated stress response (ISR) assay to evaluate the activity of ISR pathway inhibitors via luminescence readout. The H4 ATF4-NLuc (clone 17) cell line is plated at a density of […] cells in 96-well or 384-well respectively in DMEM +10% fetal bovine serum. 24-hours later test compounds diluted in dimethyl sulfoxide (DMSO) are added for 30 minutes at 37° C., followed by ISR pathway activation with 50 μm sodium arsenite aqueous solution for 6 additional hours. Nano Glo luciferase reagent (N1150, Promega) is added according to manufacturer instructions and the luminescence signal (corresponding to the level of ATF4 translation and thus ISR pathway activation) is read with a standard plate reader with luminescence detection capabilities.
In the tables below, activity of the tested compounds is provided, and in Table 3 as follows: +++=0.003 μM<IC50<1 μM; ++=IC50 1-10 μM; +=IC50>10 μM.
`O=C(COc1ccc(C(F)(F)F)cc1)N[C@@H]1CC[C@@H](C(=O)NCc2ccc(C(F)(F)F)cc2)OC1` [Example 1, (2S,5R)-5-[[2-[4-(trifluoromethyl)phenoxy]acetyl]amino]-N-[[4-(trifluoromethyl)phenyl]methyl]tetrahydropyran-2-carboxamide]: the pIC50 was 6.00 to 8.52.
`O=C(COc1ccc(C(F)(F)F)cc1)N[C@@H]1CC[C@@H](C(=O)Nc2ccc3cc(Cl)ccc3n2)OC1` [Example 2, (2S,5R)—N-(6-chloro-2-quinolyl)-5-[[2-[4-(trifluoromethyl)phenoxy]acetyl]amino]tetrahydropyran-2-carboxamide] showed a pIC50 of 6.00 to 8.52.
`CC1CN(C(=O)[C@@H]2CC[C@@H](NC(=O)COc3ccc(Cl)cc3)CO2)Cc2ccc(Cl)cc21` (stereo partly drawn) [Example 3, 2-(4-chlorophenoxy)-N-[(3R,6S)-6-(6-chloro-4-methyl-3,4-dihydro-1H-isoquinoline-2-carbonyl)tetrahydropyran-3-yl]acetamide] showed a pIC50 of 6.00 to 8.52.
Turning to `O=C(COc1ccc(C(F)(F)F)cc1)N[C@@H]1CC[C@@H](C(=O)NCCCOC(F)(F)F)OC1` [Example 4, (2S,5R)-N-[3-(trifluoromethoxy)propyl]-5-[[2-[4-(trifluoromethyl)phenoxy]acetyl]amino]tetrahydropyran-2-carboxamide], the pIC50 is 6.00 to 8.52.
In turn, `O=C(COc1ccc(C(F)(F)F)cc1)N[C@@H]1CC[C@@H](C(=O)N2CCc3cc(C(F)(F)F)ccc3C2)OC1` [Example 5, N-[(3R,6S)-6-[6-(trifluoromethyl)-3,4-dihydro-1H-isoquinoline-2-carbonyl]tetrahydropyran-3-yl]-2-[4-(trifluoromethyl)phenoxy] acetamide] gave a pIC50 of 6.00 to 8.52.
`CC1c2ccc(Cl)cc2CCN1C(=O)[C@@H]1CC[C@@H](NC(=O)COc2ccc(Cl)cc2)CO1` (stereo partly drawn) [Example 6, 2-(4-chlorophenoxy)-N-[(3R,6S)-6-(6-chloro-1-methyl-3,4-dihydro-1H-isoquinoline-2-carbonyl)tetrahydropyran-3-yl]acetamide] gave a pIC50 of 6.00 to 8.52.
Take `O=C(COc1ccc(C(F)(F)F)cc1)N[C@@H]1CC[C@@H](C(=O)Nc2ccc3ccc(Cl)cc3n2)OC1` [Example 7, (2S,5R)-N-(7-chloro-2-quinolyl)-5-[[2-[4-(trifluoromethyl)phenoxy]acetyl]amino]tetrahydropyran-2-carboxamide]: the pIC50 is 6.00 to 8.52.
In the case of `O=C(COc1ccc(C(F)(F)F)cc1)N[C@@H]1CC[C@@H](C(=O)N2C[C@@H]3[C@H](C2)[C@H]3C(F)(F)F)OC1` [Example 8, N-[(3R,6S)-6-[(1r,5s)-6-(trifluoromethyl)-3-azabicyclo[3.1.0]hexane-3-carbonyl]tetrahydropyran-3-yl]-2-[4-(trifluoromethyl)phenoxy]acetamide], the pIC50 was 5.00 to 6.00.
Regarding `O=C(COc1ccc(C(F)(F)F)cc1)N[C@@H]1CC[C@@H](C(=O)Nc2cc3ccc(Cl)cc3cn2)OC1` [Example 9, (2S,5R)-N-(7-chloro-3-isoquinolyl)-5-[[2-[4-(trifluoromethyl)phenoxy]acetyl]amino]tetrahydropyran-2-carboxamide], the pIC50 was 6.00 to 8.52.
`O=C(COc1ccc(C(F)(F)F)cc1)N[C@@H]1CC[C@@H](C(=O)N2CCc3nc(C(F)(F)F)ccc3C2)OC1` [Example 10, N-[(3R,6S)-6-[2-(trifluoromethyl)-7,8-dihydro-5H-1,6-naphthyridine-6-carbonyl]tetrahydropyran-3-yl]-2-[4-(trifluoromethyl)phenoxy] acetamide]: the pIC50 was 6.00 to 8.52.
For `O=C(COc1ccc(C(F)(F)F)cc1)N[C@@H]1CC[C@@H](C(=O)N2Cc3ccc(C(F)(F)F)cc3C2)OC1` [Example 11, N-[(3R,6S)-6-[5-(trifluoromethyl)isoindoline-2-carbonyl]tetrahydropyran-3-yl]-2-[4-(trifluoromethyl)phenoxy] acetamide], the pIC50 is 6.00 to 8.52.
In turn, `O=C(N[C@@H]1CC[C@@H](C(=O)N[C@H]2C[C@@H](COC(F)(F)F)C2)OC1)c1ccc2cc(C(F)(F)F)ccc2n1` [Example 12, N-[(3R,6S)-6-[[3-cis-(trifluoromethoxymethyl)cyclobutyl]carbamoyl]tetrahydropyran-3-yl]-6-(trifluoromethyl) quinoline-2-carboxamide] showed a pIC50 of 6.00 to 8.52.
On to `O=C(COc1ccc(C(F)(F)F)cc1)N[C@@H]1CC[C@@H](C(=O)N[C@H]2C[C@@H](COC(F)(F)F)C2)OC1` [Example 13, (2S,5R)-N-[3-cis-(trifluoromethoxymethyl)cyclobutyl]-5-[[2-[4-(trifluoromethyl)phenoxy]acetyl]amino]tetrahydropyran-2-carboxamide], for which the pIC50 is 6.00 to 8.52.
As for `O=C(COc1ccc(Cl)cc1)N[C@@H]1CC[C@@H](C(=O)NCc2cccc(C(F)(F)F)c2)OC1` [Example 14, (2S,5R)-5-[[2-(4-chlorophenoxy)acetyl]amino]-N-[[3-(trifluoromethyl)phenyl]methyl] tetrahydropyran-2-carboxamide], the figure is 6.00 to 8.52; as for `O=C(COc1ccc(Cl)cc1)N[C@@H]1CC[C@@H](C(=O)NCc2cccc(Cl)c2)OC1` [Example 15, (2S,5R)-5-[[2-(4-chlorophenoxy)acetyl]amino]-N-[(3-chlorophenyl)methyl] tetrahydropyran-2-carboxamide], 6.00 to 8.52.
Take `O=C(COc1ccc(Cl)cc1)N[C@@H]1CC[C@@H](C(=O)NCc2ccc(C(F)(F)F)nc2)OC1` [Example 16, (2S,5R)-5-[[2-(4-chlorophenoxy)acetyl]amino]-N-[[6-(trifluoromethyl)-3-pyridyl]methyl] tetrahydropyran-2-carboxamide]: the pIC50 was 6.00 to 8.52.
Turning to `C[C@@H](NC(=O)[C@@H]1CC[C@@H](NC(=O)COc2ccc(Cl)cc2)CO1)c1ccc(Cl)cc1` [Example 17, (2S,5R)-5-[[2-(4-chlorophenoxy)acetyl]amino]-N-[(1R)-1-(4-chlorophenyl)ethyl] tetrahydropyran-2-carboxamide], the pIC50 was 6.00 to 8.52.
In the case of `C[C@H](NC(=O)[C@@H]1CC[C@@H](NC(=O)COc2ccc(Cl)cc2)CO1)c1ccc(Cl)cc1` [Example 18, (2S,5R)-5-[[2-(4-chlorophenoxy)acetyl]amino]-N-[(1S)-1-(4-chlorophenyl)ethyl] tetrahydropyran-2-carboxamide], the pIC50 is 6.00 to 8.52.
Compound `CN(Cc1ccc(Cl)cc1)C(=O)[C@@H]1CC[C@@H](NC(=O)COc2ccc(Cl)cc2)CO1` [Example 19, (2S,5R)-5-[[2-(4-chlorophenoxy)acetyl]amino]-N-[(4-chlorophenyl)methyl]-N-methyl-tetrahydropyran-2-carboxamide] gave a pIC50 of 6.00 to 8.52.
With `O=C(COc1ccc(Cl)cc1)N[C@@H]1CC[C@@H](C(=O)NCc2ccc(C(F)(F)F)cc2)OC1` [Example 20, (2S,5R)-5-[[2-(4-chlorophenoxy)acetyl]amino]-N-[[4-(trifluoromethyl)phenyl]methyl] tetrahydropyran-2-carboxamide], the pIC50 was 6.00 to 8.52.
With `O=C(COc1ccc(Cl)cc1)N[C@@H]1CC[C@@H](C(=O)N2CCc3ccc(Cl)cc3C2)OC1` [Example 21, 2-(4-chlorophenoxy)-N-[(3R,6S)-6-(7-chloro-3,4-dihydro-1H-isoquinoline-2-carbonyl)tetrahydropyran-3-yl]acetamide], the pIC50 was 6.00 to 8.52.
The compound `O=C(COc1ccc(Cl)cc1)N[C@@H]1CC[C@@H](C(=O)N2CCc3cc(Cl)ccc3C2)OC1` [Example 22, 2-(4-chlorophenoxy)-N-[(3R,6S)-6-(6-chloro-3,4-dihydro-1H-isoquinoline-2-carbonyl)tetrahydropyran-3-yl]acetamide] gave a pIC50 of 6.00 to 8.52.
Regarding `O=C(NCC1CC(OC(F)(F)F)C1)[C@@H]1CC[C@@H](n2cnc(-c3ccc(Cl)c(F)c3)c2)CO1` (stereo partly drawn) [Example 23, (2S,5R)-5-[4-(4-chloro-3-fluoro-phenyl)imidazol-1-yl]-N-[[3-(trifluoromethoxy)cyclobutyl]methyl] tetrahydropyran-2-carboxamide], the pIC50 is 6.00 to 8.52.
Take `O=C(N[C@H]1C[C@@H](COC(F)(F)F)C1)[C@@H]1CC[C@@H](n2cnc(-c3ccc(Cl)c(F)c3)c2)CO1` [Example 24, (2S,5R)-5-[4-(4-chloro-3-fluoro-phenyl)imidazol-1-yl]-N-[3-cis-(trifluoromethoxymethyl)cyclobutyl] tetrahydropyran-2-carboxamide]: the pIC50 is 6.00 to 8.52.
